Measured values as given in US20090306133A1, “New Acetyl Coenzyme A Carboxylase (ACC) Inhibitors And Uses In Treatments Of Obesity And Diabetes Mellitus - 087” (ASTRAZENECA AB, priority 2007, published 2009).

Experiments:
[1] = target: Human recombinant Acetyl-CoA Carboxylase 1 (ACC1) (Homo sapiens, UniProt Q13085); assay: Assay Y: ACC1 inhibition, inorganic phosphate (Malachite Green); assay type: biochemical; conditions: Assay Y: room temperature, 3 hr, 15 min preincubation
Experimental: (§1) Preincubation of 6 μL enzyme together with 0.3 μL compound for 15 min was done before the reaction was initiated by the addition of 4 μL substrate. […] After 3 hr the reaction was stopped by addition of 60 μL of water followed by 30 μL Malachite Green solution. The Malachite Green solution was prepared by mixing 16.4 mL ammonium molybdate solution (7.5%), 1.64 mL Tween (11%) with 82 mL Malachite Green/H2SO4-solution (0.7 g Malachite Green to 1000 mL of 10% (v/v) H2SO4). Plates were left for 10 min at room temperature before reading the absorbance at 670 nm. All compounds were tested in triplicate at 10 different concentrations. Control compound (0, 50 and 100% effect) was included on each plate. […] An IC50 value was derived by non-linear regression curve fitting using the following equation: […]))) where A is the non-specific binding, B is the total binding, C is the IC50 and D is the slope. Saturation binding Kd and Bmax were derived using the equation y=((B1 max*x)/(Kd+x)).

[2] = target: Human recombinant Acetyl-CoA Carboxylase 2 (ACC2) (Homo sapiens, UniProt O00763); assay: Assay Y: ACC2 inhibition, inorganic phosphate (Malachite Green); assay type: biochemical; conditions: Assay Y: room temperature, 3 hr, 15 min preincubation
Experimental: as §1

Human recombinant Acetyl-CoA Carboxylase 2 (ACC2), sequence (O00763 whole entry): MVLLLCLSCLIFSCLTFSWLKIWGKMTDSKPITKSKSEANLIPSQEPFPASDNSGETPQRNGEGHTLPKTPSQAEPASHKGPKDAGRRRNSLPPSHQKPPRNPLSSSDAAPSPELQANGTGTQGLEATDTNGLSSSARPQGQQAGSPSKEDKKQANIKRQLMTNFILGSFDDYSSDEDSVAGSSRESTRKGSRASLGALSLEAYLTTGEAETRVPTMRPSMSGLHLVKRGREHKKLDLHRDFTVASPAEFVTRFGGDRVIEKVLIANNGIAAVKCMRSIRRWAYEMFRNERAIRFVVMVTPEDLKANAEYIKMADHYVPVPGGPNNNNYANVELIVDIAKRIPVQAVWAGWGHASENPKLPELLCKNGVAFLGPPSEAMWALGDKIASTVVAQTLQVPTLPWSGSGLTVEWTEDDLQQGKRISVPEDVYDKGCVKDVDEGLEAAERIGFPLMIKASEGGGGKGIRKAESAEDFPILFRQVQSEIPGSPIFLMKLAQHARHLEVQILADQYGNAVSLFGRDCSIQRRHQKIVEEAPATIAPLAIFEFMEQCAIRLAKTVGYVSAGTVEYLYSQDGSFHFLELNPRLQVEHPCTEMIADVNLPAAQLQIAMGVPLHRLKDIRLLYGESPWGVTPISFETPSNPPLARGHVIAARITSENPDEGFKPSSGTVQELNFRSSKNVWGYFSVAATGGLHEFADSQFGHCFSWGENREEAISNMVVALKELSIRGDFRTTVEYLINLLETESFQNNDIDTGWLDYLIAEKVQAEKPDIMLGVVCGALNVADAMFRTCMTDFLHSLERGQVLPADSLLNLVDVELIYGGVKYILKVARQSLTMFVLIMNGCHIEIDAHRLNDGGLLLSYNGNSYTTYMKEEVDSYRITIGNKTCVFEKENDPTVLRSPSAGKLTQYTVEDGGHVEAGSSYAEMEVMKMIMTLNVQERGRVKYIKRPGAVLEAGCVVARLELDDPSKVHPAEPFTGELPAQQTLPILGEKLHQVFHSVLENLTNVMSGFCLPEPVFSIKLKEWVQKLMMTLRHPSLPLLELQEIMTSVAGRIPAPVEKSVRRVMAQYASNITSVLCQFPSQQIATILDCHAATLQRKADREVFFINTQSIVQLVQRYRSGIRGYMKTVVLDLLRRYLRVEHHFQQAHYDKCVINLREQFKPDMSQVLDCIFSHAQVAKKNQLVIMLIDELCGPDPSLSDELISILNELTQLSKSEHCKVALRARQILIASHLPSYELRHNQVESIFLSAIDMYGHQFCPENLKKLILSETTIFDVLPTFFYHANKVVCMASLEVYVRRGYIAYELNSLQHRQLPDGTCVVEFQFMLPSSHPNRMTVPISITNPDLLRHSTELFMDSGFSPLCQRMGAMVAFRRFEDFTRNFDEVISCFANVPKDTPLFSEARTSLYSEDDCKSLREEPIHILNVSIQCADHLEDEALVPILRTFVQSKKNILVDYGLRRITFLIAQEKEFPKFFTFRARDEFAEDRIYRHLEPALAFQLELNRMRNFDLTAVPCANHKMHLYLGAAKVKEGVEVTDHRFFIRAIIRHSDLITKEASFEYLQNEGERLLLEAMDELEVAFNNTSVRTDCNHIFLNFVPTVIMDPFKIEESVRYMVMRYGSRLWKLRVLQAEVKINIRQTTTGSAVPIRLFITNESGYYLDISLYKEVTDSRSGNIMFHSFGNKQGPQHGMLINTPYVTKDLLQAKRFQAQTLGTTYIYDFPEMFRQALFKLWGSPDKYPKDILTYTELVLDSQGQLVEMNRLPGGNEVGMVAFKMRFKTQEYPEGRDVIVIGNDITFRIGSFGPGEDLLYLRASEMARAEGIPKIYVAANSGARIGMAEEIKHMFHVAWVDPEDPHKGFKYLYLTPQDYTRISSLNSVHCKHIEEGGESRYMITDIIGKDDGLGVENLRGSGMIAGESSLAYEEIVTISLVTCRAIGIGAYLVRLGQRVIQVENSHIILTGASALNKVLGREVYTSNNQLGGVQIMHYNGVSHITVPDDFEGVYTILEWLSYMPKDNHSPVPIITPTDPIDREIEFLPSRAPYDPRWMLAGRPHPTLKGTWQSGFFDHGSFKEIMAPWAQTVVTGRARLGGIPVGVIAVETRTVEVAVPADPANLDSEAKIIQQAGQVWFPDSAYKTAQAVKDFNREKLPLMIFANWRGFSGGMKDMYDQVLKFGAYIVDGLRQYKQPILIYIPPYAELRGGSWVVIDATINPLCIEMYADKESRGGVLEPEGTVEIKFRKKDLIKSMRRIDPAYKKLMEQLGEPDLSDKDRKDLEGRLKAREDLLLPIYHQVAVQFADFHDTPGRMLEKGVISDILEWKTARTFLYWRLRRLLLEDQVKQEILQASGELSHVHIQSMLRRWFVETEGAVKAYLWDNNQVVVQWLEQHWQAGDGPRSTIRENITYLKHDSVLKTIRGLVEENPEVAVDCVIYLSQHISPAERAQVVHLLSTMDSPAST

Compound | IC50 [1] [nM] | IC50 [2] [nM]
CC(C)(C)OC(=O)NC[C@H]1CC[C@H](CNS(=O)(=O)c2ccc(Br)c(Br)c2)CC1 [Example 64, tert-Butyl {[trans-4-({[(3,4-dibromophenyl)sulfonyl]amino}methyl)cyclohexyl]-methyl}carbamate] | > 20000 | 3720
COC(=O)NCc1cccc(-c2cc(C(=O)NC[C@H]3CC[C@H](CNC(=O)OC(C)(C)C)CC3)c3ccccc3n2)c1 [Example 101, Methyl [3-(4-{[(trans-4-{[(tert-butoxycarbonyl)amino]methyl}cyclohexyl)methyl]-carbamoyl}quinolin-2-yl)benzyl]carbamate] | 2210 | 150
CCOC(=O)NC[C@H]1CC[C@H](CNC(=O)c2cc(-c3ccc(C(N)=O)cc3)nc3ccccc23)CC1 [Example 61, Ethyl ({trans-4-[({[2-(4-carbamoylphenyl)quinolin-4-yl]carbonyl}amino)methyl]-cyclohexyl}methyl)carbamate] | 1000 | 550
CN1CCN(c2ccc(-c3cc(C(=O)NC[C@H]4CC[C@H](CNC(=O)OC5CCOCC5)CC4)c4ccccc4n3)cn2)CC1 [Example 109, Tetrahydro-2H-pyran-4-yl [(trans-4-{[({2-[6-(4-methylpiperazin-1-yl)pyridin-3-yl]quinolin-4-yl}carbonyl)amino]methyl}cyclohexyl)methyl]carbamate] | 1710 | 210
CC(=O)N1CCN(CCCOc2cc(C(=O)NC[C@H]3CC[C@H](CNC(=O)OC(C)(C)C)CC3)c3ccccc3n2)CC1 [Example 183, tert-Butyl[(trans-4-{[({2-[3-(4-acetylpiperazin-1-yl)propoxy]quinolin-4-yl}carbonyl)amino]-methyl}cyclohexyl)-methyl]carbamate] | > 20000 | 1260
CCOC(=O)NC[C@H]1CC[C@H](CNC(=O)c2cc(-c3ccncc3)nc3ccccc23)CC1 [Example 60, Ethyl {[trans-4-({[(2-pyridin-4-ylquinolin-4-yl)carbonyl]amino}methyl)cyclo-hexyl]methyl}carbamate] | 3170 | 1820
CC(C)(C)OC(=O)NC[C@H]1CC[C@H](CNC(=O)c2cc(-c3ccc(C#N)cc3)nc3ccccc23)CC1 [Example 34, tert-Butyl ({trans-4-[({[2-(4-cyanophenyl)quinolin-4-yl]carbonyl}amino)methyl]cyclo-hexyl}methyl)carbamate] | 1170 | 220
CN(C[C@H]1CC[C@H](CNC(=O)OC(C)(C)C)CC1)S(=O)(=O)c1ccc2ccccc2c1 [Example 88, tert-Butyl [(trans-4-{[methyl(2-naphthylsulfonyl)amino]methyl}cyclohexyl)methyl]-carbamate] | > 20000 | 2450
CC(C)(C)OC(=O)NC[C@H]1CC[C@H](CNC(=O)c2cc(-c3ccncc3)nc3ccccc23)CC1 [Example 7, tert-butyl {[trans-4-({[(2-pyridin-4-ylquinolin-4-yl)carbonyl]amino}methyl)cyclohexyl]methyl}-carbamate] | 1030 | 210
CN1CCN(c2ccc(-c3cc(C(=O)NC[C@H]4CC[C@H](CNC(=O)OCC5CCO5)CC4)c4ccccc4n3)cn2)CC1 (relative stereo) [Example 111, Oxetan-2-ylmethyl-[(trans-4-{[({2-[6-(4-methylpiperazin-1-yl)pyridin-3-yl]quinolin-4-yl}carbonyl)amino]methyl}cyclohexyl)methyl]carbamate] | 3180 | 710
CC(C)(C)OC(=O)NC[C@H]1CC[C@H](CNC(=O)c2cc(-c3cccc(CNC(N)=O)c3)nc3ccccc23)CC1 [Example 99, tert-Butyl {[trans-4-({[(2-{3-[(carbamoylamino)methyl]phenyl}quinolin-4-yl)-carbonyl]amino}methyl)cyclohexyl]methyl}carbamate] | 780 | 100
CN1CCC(OC(=O)NC[C@H]2CC[C@H](CNC(=O)c3cc(-c4ccc(N5CCN(C)CC5)nc4)nc4ccccc34)CC2)CC1 [Example 110, 1-Methylpiperidin-4-yl-[(trans-4-{[({2-[6-(4-methylpiperazin-1-yl)pyridin-3-yl]quinolin-4-yl}carbonyl)amino]methyl}cyclohexyl)methyl]carbamate] | > 20000 | 4370
Cc1noc(C)c1-c1cc(C(=O)NC[C@H]2CC[C@H](CNC(=O)OC(C)(C)C)CC2)c2ccccc2n1 [Example 15, tert-Butyl ({trans-4-[({[2-(3,5-dimethylisoxazol-4-yl)quinolin-4-yl]carbonyl}amino)-methyl]cyclohexyl}methyl)carbamate] | > 20000 | 2870
CCOC(=O)NC[C@H]1CC[C@H](CNS(=O)(=O)c2ccc3ccccc3c2)CC1 [Example 54, Ethyl [(trans-4-{[(2-naphthylsulfonyl)amino]methyl}cyclohexyl)methyl]carbamate] | > 20000 | 3990
CN(C[C@H]1CC[C@H](CNC(=O)OC(C)(C)C)CC1)C(=O)c1cc(-c2ccccc2)nc2ccccc12 [Example 91, tert-Butyl {[trans-4-({methyl[(2-phenylquinolin-4-yl)carbonyl]amino}methyl)cyclo-hexyl]methyl}carbamate] | 4820 | 2300
COc1ccccc1-c1cc(C(=O)NC[C@H]2CC[C@H](CNC(=O)OC(C)(C)C)CC2)c2ccccc2n1 [Example 23, tert-Butyl ({trans-4-[({[2-(2-methoxyphenyl)quinolin-4-yl]carbonyl}amino)methyl]-cyclohexyl}methyl)carbamate] | 3270 | 460
CN1CCN(c2ccc(-c3cc(C(=O)NC[C@H]4CC[C@H](CNC(=O)OC5CCOC5)CC4)c4ccccc4n3)cn2)CC1 (relative stereo) [Example 114, Tetrahydrofuran-3-yl-[(trans-4-{[({2-[6-(4-methylpiperazin-1-yl)pyridin-3-yl]quinolin-4-yl}carbonyl)amino]methyl}cyclohexyl)methyl]carbamate] | 2380 | 330
CNS(=O)(=O)c1ccc(-c2cc(C(=O)NC[C@H]3CC[C@H](CNC(=O)OC4CCOCC4)CC3)c3ccccc3n2)cc1 [Example 136, Tetrahydro-2H-pyran-4-yl{[trans-4-({[(2-{4-[(methylamino)sulfonyl]phenyl}quinolin-4-yl)carbonyl]amino}methyl)cyclohexyl]methyl}-carbamate] | 3070 | 620
CCOC(=O)NC[C@H]1CC[C@H](CNC(=O)c2cc(-c3ccc(C)cc3)nc3ccccc23)CC1 [Example 28, Ethyl ({trans-4-[({[2-(4-methylphenyl)quinolin-4-yl]carbonyl}amino)methyl]cyclo-hexyl}methyl)carbamate] | 6000 | 1170
CC(C)(C)OC(=O)NC[C@H]1CC[C@H](CNC(=O)c2cc(-c3cccc(CNS(C)(=O)=O)c3)nc3ccccc23)CC1 [Example 98, tert-Butyl ({trans-4-[({[2-(3-{[(methylsulfonyl)amino]methyl}phenyl)quinolin-4-yl]carbonyl}amino)methyl]cyclohexyl}methyl)carbamate] | 1370 | 70
COC[C@@H](C)OC(=O)NC[C@H]1CC[C@H](CNC(=O)c2cc(-c3ccc(N4CCN(C)CC4)nc3)nc3ccccc23)CC1 (stereo in doubt) [Example 113, (1R)-2-Methoxy-1-methylethyl[(trans-4-{[({2-[6-(4-methylpiperazin-1-yl)pyridin-3-yl]quinolin-4-yl}carbonyl)amino]methyl}cyclohexyl)methyl]carbamate] | 7800 | 940
CCOc1ccc(-c2cc(C(=O)NC[C@H]3CC[C@H](CNC(=O)OC(C)(C)C)CC3)c3ccccc3n2)cc1 [Example 4, tert-Butyl ({trans-4-[({[2-(4-ethoxyphenyl)quinolin-4-yl]carbonyl}amino)methyl]-cyclohexyl}methyl)carbamate] | 1330 | 390
CC(C)(C)OC(=O)NC[C@H]1CC[C@H](CN(CC(F)(F)F)S(=O)(=O)c2ccc3ccccc3c2)CC1 [Example 86, tert-Butyl [(trans-4-{[(2-naphthylsulfonyl)(2,2,2-trifluoroethyl)amino]methyl}cyclo-hexyl)methyl]carbamate] | > 20000 | 6980
CC(C)(C)OC(=O)NC[C@H]1CC[C@H](CNC(=O)c2cc(-c3cnccn3)nc3ccccc23)CC1 [Example 3, tert-Butyl {[trans-4-({[(2-pyrazin-2-ylquinolin-4-yl)carbonyl]amino}methyl)cyclohexyl]methyl}carbamate] | 1520 | 650
COc1ccc(-c2cc(C(=O)NC[C@H]3CC[C@H](CNC(=O)OC(C)(C)C)CC3)ccn2)c(OC)n1 [Example 48, tert-Butyl {[trans-4-({[(2′,6′-dimethoxy-2,3′-bipyridin-4-yl)carbonyl]amino}methyl)-cyclohexyl]methyl}carbamate] | > 20000 | 9670
CC(C)(C)OC(=O)NC[C@H]1CC[C@H](CNC(=O)c2cc(-c3ccc(CN)cc3)nc3ccccc23)CC1 [Example 92, tert-Butyl [(trans-4-{[({2-[4-(aminomethyl)phenyl]quinolin-4-yl}carbonyl)amino]-methyl}cyclohexyl)methyl]carbamate acetate] | 260 | 50
